{
  "source": "patent US8686036B2",
  "about": "“Methods of controlling heart rate while minimizing and/or controlling hypotension” (Baxter International Inc., priority 2011, dated 2014)",
  "key": {"[1]": {"assay": "Anesthetized mongrel dog model of the hypotensive potential of esmolol infusions", "assay_type": "in vivo", "conditions": "for decrease in mean arterial pressure (MAP) from pre-infusion baseline, percent change: high dose infusion protocols, FIG. 10: 2000 μg/kg/min RS, 1000 μg/kg/min S, 1000 μg/kg/min R", "description": "A model system utilizing anesthetized mongrel dogs was established in order to predict the hypotensive potential of esmolol hydrochloride injection in human patients. One dog was administered a formulation containing racemic esmolol hydrochloride at a loading dose of 600 μg/kg/min for 3 minutes followed by a maintenance infusion of 300 μg/kg/min for 10 minutes (referred to as 600RS/300RS) followed by a washout period (FIG. 1). In this and subsequent figures, the duration of infusion of the various medicaments is indicated by a coded horizontal line, parallel to the time axis. This protocol was repeated by administering 2000 μg/kg/min for 3 minutes followed by a maintenance infusion of 1000 μg/kg/min for 10 minutes (referred to as 2000RS/1000RS) and then by administering 400 μg/kg/min for 3 minutes followed by a maintenance infusion of 200 μg/kg/min for 10 minutes (referred to as 400RS/200RS). Mean arterial blood pressure and heart rate were monitored throughout the experiment.\nWhile the doses administered to the dogs in the experiments described herein were larger than typical clinical doses, the doses were administered in order to increase repeatability and induce acute hypotension in close to 100% of the dogs by sufficiently increasing the effect level above background noise. Moreover, relative to esmolol administration in humans, the dog model replicates within experimental error the same dependence of mean arterial blood pressure versus infusion rate. Therefore, the conclusions reached at these relatively higher dose levels in dogs are relevant to minimization of adverse effects at lower doses in humans.\nIn initial experiments, the hypotensive potential of a composition comprising the S-isomer of esmolol hydrochloride was compared to a composition comprising the racemic formulation. Mean arterial blood pressure, cardiac output, and systemic vascular resistance were monitored throughout the experiments. Cardiac output and systemic vascular resistance were evaluated to understand the cause of the hypotension (i.e., decrease in cardiac output and/or decrease in systemic vascular resistance).\nEach of four mongrel dogs was administered increasing doses of esmolol hydrochloride (FIGS. 2-5). Two dogs (D00028 and DG0029) received 150 μg/kg/min of the S-isomer formulation until mean arterial pressure reached a steady state, at which time the animal was immediately switched over to 300 μg/kg/min of the racemic formulation (this protocol is referred to as 150S/300RS in FIGS. 3a and 4a). Once a steady state was reached the infusion was stopped and was followed by a washout period. A similar protocol was repeated in both dogs using 300 μg/kg/min of the S-isomer of esmolol followed by administration of 600 μg/kg/min of the racemic mixture of esmolol (this protocol is 300S/600RS in FIGS. 3b and 4b). A final protocol involved administration of 1000 μg/kg/min of the S-isomer of esmolol followed by administration of 2000 μg/kg/min of the racemic mixture of esmolol followed by 1000 μg/kg/min of the S-isomer of esmolol (this protocol is referred to as 1000S/2000RS/1000S in FIGS. 3c and 4c).\nA similar series of protocols were repeated with the other two dogs (DG0027 and DG0030) except the racemic mixture of esmolol was administered before the S-isomer. In other words, 300 μg/kg/min of the racemic mixture of esmolol was administered, followed by administration of 150 μg/kg/min of the S-isomer of esmolol (this protocol is referred to as 300RS/150S in FIGS. 2a and 5a), 600 μg/kg/min of the racemic mixture of esmolol was administered, followed by administration of 300 μg/kg/min of the S-isomer of esmolol (this protocol is referred to as 600RS/300S in FIGS. 2b and 5b), and 2000 μg/kg/min of the racemic mixture of esmolol was administered, followed by administration of 1000 μg/kg/min of the S-isomer of esmolol, and then 2000 μg/kg/min of the racemic mixture of esmolol again (this protocol is referred to as 2000RS/1000S/2000RS in FIGS. 2c and 5c)]. […]"}, "[2]": {"tested_on": "isoproterenol-induced tachycardia", "assay": "Isoproterenol challenge (isoproterenol-induced tachycardia) in dogs after esmolol infusion", "assay_type": "in vivo, dog", "conditions": "for reduction in mean arterial pressure: 10 minutes", "description": "The purpose of this experiment was to determine if the attenuated hypotension (as assessed by mean arterial blood pressure end point) observed in Example 2 following administration of the S-isomer was associated with reduced efficacy (i.e., ability to control isoproterenol-induced tachycardia) as compared with the racemic formulations.\nOne dog was administered a bolus dose of isoproterenol (0.25 μg/kg) to establish a baseline heart rate response (FIG. 6a). Isoproterenol is a non-selective […] adrenergic agonist capable of inducing tachycardia. After a washout period, the racemic formulation (RS) was administered at 90 μg/kg/min for 10 minutes immediately followed by an isoproterenol challenge. After a washout period, the S-isomer formulation (S) was administered at 45 μg/kg/min for 10 minutes immediately followed by another isoproterenol challenge. This protocol was repeated using 150 μg/kg/min S-isomer followed by 300 μg/kg/min racemic formulation (FIG. 6b) then 2000 μg/kg/min racemic formulation followed by 1000 μg/kg/min S-isomer (FIG. 6c).\nThe experimental protocol was carried out essentially as described in Example 3. In short, each dog was administered racemic esmolol (RS) at the indicated dose for 10 minutes immediately followed by an isoproterenol challenge (a bolus dose of isoproterenol at 0.25 μg/kg). After a washout period, the S-isomer formulation (S) was administered at an equitherapeutic dose for 10 minutes immediately followed by another isoproterenol challenge. This protocol was performed at 90 μg/kg/min RS/45 μg/kg/min S (5 dogs), 300 μg/kg/min RS/150 μg/kg/min S (1 dog), 600 μg/kg/min RS/300 μg/kg/min S (3 dogs), 1000 μg/kg/min RS/500 μg/kg/min S (4 dogs), and 2000 μg/kg/min RS/1000 μg/kg/min S (3 dogs).\nIn order to better estimate the true differential effect in hypotensive potential between racemic esmolol and the S-isomer of esmolol at the lower dose range, data from other dogs that were not part of the isoproterenol challenge experiments, but were otherwise treated identically, were combined with the data set from FIG. 12A and presented in FIG. 12B. The additional data points were only from those dogs where a stated dose was administered first or where a sufficient wash-out period preceded the stated dose as to avoid any confounding variables. […] Thus, the lack of significant differentiation in mean arterial pressure seen at the lower doses in FIG. 12A was likely due to the relatively smaller sample size and biological variability."}, "[3]": {"conditions": "cited from earlier work"}, "[4]": {"assay": "Superimposition of dog systolic blood pressure results with human meta-analysis (Yu et al.)", "assay_type": "in vivo", "conditions": "at a given dose, FIG. 13, human data of Yu et al.", "from_the_text": "The esmolol doses administered to the dogs in the experiments described herein needed to be larger than typical clinical doses used in humans in order to increase repeatability and induce acute hypotension in close to 100% of the dogs by sufficiently increasing the effect level above background noise. To confirm that the results obtained herein with mongrel dogs are clinically relevant, data from the experimental results obtained herein were superimposed with the maximal weighted mean difference in systolic blood pressure results obtained by Yu et al. in a meta-analysis of randomized controlled clinical trials with esmolol hydrochloride (Yu et al., Anesth Analg. 2011 February; 112(2):267-81)."}, "[5]": {"assay": "Anesthetized mongrel dog model of the hypotensive potential of esmolol infusions", "assay_type": "in vivo"}, "beta-adrenergic": {"tested_on": "beta-adrenergic", "conditions": "WO 88/01614; cited from earlier work"}, "[6]": {"conditions": "Example 1, one dog, 400RS/200RS, 600RS/300RS, 2000RS/1000RS"}},
  "note": "Structures can show the parent of a compound that is named as a salt.",
  "data": [
    {"smiles": "COC(=O)CCc1ccc(OCC(O)CNC(C)C)cc1", "note": "(racemic) [esmolol hydrochloride, methyl-3-[4-(2-hydroxy-3-isopropylamino)propoxy]phenylpropionate hydrochloride]", "values": [
      {"measurement": "heart rate response", "setting": "[1]; [6]", "value": "dose-dependent reflex tachycardia"},
      {"measurement": "mean arterial blood pressure response", "setting": "[1]; [6]", "value": "clear dose-dependent decrease in mean arterial blood pressure"},
      {"measurement": "mean arterial pressure response", "setting": "[1]; Example 2, four dogs, 300, 600, 2000 μg/kg/min, before or after the S-isomer", "value": "dose-dependent decrease in mean arterial pressure in all four dogs"},
      {"measurement": "decrease in MAP from end of first infusion to end of second infusion", "setting": "[1]; FIG. 11, initial state S-isomer formulation, then RS racemic mixture", "value": 32, "unit": "%"},
      {"measurement": "decrease in mean arterial pressure (MAP) from pre-infusion baseline, percent change", "setting": "[1]", "value": 40, "unit": "%"},
      {"measurement": "mean arterial blood pressure response", "setting": "[2]; Example 3, one dog, RS 90, 300, 2000 μg/kg/min vs S 45, 150, 1000 μg/kg/min", "value": "greater dose-dependent decrease in mean arterial blood pressure relative to the S-isomer"},
      {"measurement": "reduction in mean arterial pressure", "setting": "[2]; Example 5, infusion rate 1000 μg/kg/min", "value": "about 20 mmHg"},
      {"measurement": "patients who experienced hypotension", "setting": "[3]; clinical trials, packaging insert", "value": "20-50%"},
      {"measurement": "acute hypotension in patients of Asian ancestry", "setting": "[3]; loading infusion 500 μg/kg body weight per minute, Ko et al.", "value": "all patients administered this dosage experienced acute hypotension"},
      {"measurement": "severity of clinical hypotension (systolic blood pressure) in human patients relative to the dog model", "setting": "[4]", "value": "more than two times as severe"}
    ]},
    {"smiles": "COC(=O)CCc1ccc(OC[C@H](O)CNC(C)C)cc1", "note": "(single isomer, unassigned) [R-isomer]", "values": [
      {"measurement": "ability to lower heart rate when experimentally increased", "setting": "[1]; Examples 1-4", "value": "no apparent, inherent ability to lower heart rate"},
      {"measurement": "decrease in mean arterial pressure (MAP) from pre-infusion baseline, percent change", "setting": "[1]", "value": 19, "unit": "%"},
      {"measurement": "cardiovascular changes following administration", "setting": "[5]; Example 4", "value": "qualitatively identical to those following the administration of the racemic formulation"}
    ]},
    {"smiles": "COC(=O)CCc1ccc(OC[C@@H](O)CNC(C)C)cc1.Cl", "note": "(single isomer, unassigned) [S-isomer]", "values": [
      {"measurement": "hypotension (mean arterial blood pressure) at the high dose infusion protocol", "setting": "[1]; Example 2, 1000 μg/kg/min S-isomer vs 2000 μg/kg/min racemic mixture", "value": "significantly less hypotension relative to the racemic formulation"},
      {"measurement": "mean arterial blood pressure during the 1000S phase", "setting": "[1]; Example 2, 2000RS/1000S/2000RS protocol, FIG. 2c", "value": "increased"},
      {"measurement": "increase in MAP from end of first infusion to end of second infusion", "setting": "[1]; FIG. 11, initial state RS racemic mixture, then S-isomer", "value": 34, "unit": "%"},
      {"measurement": "decrease in mean arterial pressure (MAP) from pre-infusion baseline, percent change", "setting": "[1]", "value": 13, "unit": "%"},
      {"measurement": "hypotension (mean arterial blood pressure) at the high infusion rate", "setting": "[2]; Example 3, 1000 μg/kg/min S-isomer vs 2000 μg/kg/min racemic formulation", "value": "significantly less hypotension relative to the racemic formulation"},
      {"measurement": "efficacy in reducing isoproterenol-induced tachycardia", "setting": "[2]; Example 3, equitherapeutic amounts (half the racemic dose)", "value": "same degree of efficacy in reducing isoproterenol-induced tachycardia as compared with the racemic formulation"},
      {"measurement": "hypotensive effect (reduction in mean arterial pressure) vs racemic esmolol", "setting": "[2]; Example 5, doses greater than 600 μg/kg/min racemic esmolol/300 μg/kg/min S-isomer formulation", "value": "differed significantly"},
      {"measurement": "reduction in mean arterial pressure", "setting": "[2]; Example 5, equitherapeutic dose 500 μg/kg/min", "value": "about 10 mmHg"},
      {"measurement": "percent reduction in heart rate following isoproterenol challenge vs racemic esmolol", "setting": "[2]; Example 5, equitherapeutic dose (half the racemic dose), all doses, FIG. 12A", "value": "essentially identical"},
      {"measurement": "efficacy in reducing isoproterenol-induced tachycardia", "setting": "[2]; Example 5, equitherapeutic doses, across all doses", "value": "same degree of efficacy in reducing isoproterenol-induced tachycardia as compared with the racemic formulation"},
      {"measurement": "difference in mean arterial pressure vs racemic esmolol, pooled data", "setting": "[2]; FIG. 12B, 600 μg/kg/min racemic esmolol (7 dogs)/300 μg/kg/min S-isomer (5 dogs)", "value": "statistically significant difference in mean arterial pressure"},
      {"measurement": "potency as beta-adrenergic-blocking agent relative to an equivalent amount of the racemic mixture", "setting": "beta-adrenergic", "value": "about twice"},
      {"measurement": "mean arterial blood pressure at the high dose infusion rate relative to the racemic formulation", "setting": "[5]; Example 4, 1000 μg/kg/min S after 2000 μg/kg/min RS", "value": "improved (or increased)"}
    ]}
  ]
}
